Source: patent US9771563B2, “Chemical approaches for generation of induced pluripotent stem cells” (The Scripps Research Institute, priority 2008, dated 2017)

Columns and labels:
[1] = system: primary OG2 neural progenitor cells; assay: iPS cell induction from neural progenitor cells after retroviral transduction; assay type: cell-based, mouse
Protocol: The reporter neural progenitor cells were generated using a well established protocol by differentiating the Oct4-GiP mESCs grown in monolayer on gelatin in a chemically defined medium/CDM condition in the absence of serum and other growth factors/cytokines at low cell density for eight days, followed by neurophere formation and subsequent serial passaging in single cells in neural cell expansion media supplemented with 10 ng/ml of bFGF and EGF in monolayer for over six passages/24 days. The resulting neural progenitor cells were homogenous by cell morphology and neural marker expression, and were confirmed to be GFP negative and puromycin sensitive. Such neural progenitor cells plated in monolayer in conventional mESC growth media were transduced with combinations of four, three, or two of the four factors, followed by treating the transduced cells with individual small molecules from a small known drug collection in a typical 6-well format. The compound treatment and culture were continued for additional ten days before puromycin was added. The number of green and puro-resistant colonies was counted at day 14. In comparison to the only four-gene transduced neural cells as the positive control, compound conditions that generated more green colonies than the corresponding gene-only conditions were picked as primary hits. To further confirm these primary hit conditions, we chose to use a late passage of mouse CNS neural progenitor cells (Do, J. T. et al., Stem Cells 25, 1013-1020 (2007)) that were derived from fetal brain of OG2^+/−/ROSA26^+/− transgenic mice (which contain an Oct4-GFP reporter) and expanded in monolayer under the same neural CDM condition as the above with 10 ng/ml of bFGF and EGF. Such cells truly from a non-pluripotent tissue would be devoid of concerns of any contaminating ES cell in the above screening system, which is highly unlikely with all appropriate controls. Similar culture conditions and reprogramming assays were performed using the OG2 neural progenitor cells except that puromycin was not used and green colonies were picked out and characterized by staining of Nanog, SSEA1 and ALP.
mESC-derived or primary OG2 mouse neural progenitor cells were plated into Matrigel (1:50, BD Biosciences) coated 6-well plates at 3.5×10^4 cells/well in the neural progenitor cell expansion media. After one day these cells were transduced with retrovirus for overnight, and the medium was changed into the mESC growth media [DMEM, 5% FBS, 10% KSR, 1× non-essential amino acids (Gibco), 2 mM L-glutamine (Gibco), 0.1 mM β-mercaptoethanol (Gibco) and 10^3 unit/ml LIF (Chemicon)] with or without BIX01294 (0.5-1 μM). GFP-positive iPS cell colonies appeared after 9-14 days, and were picked out and expanded on MEF feeder cells with the mESC growth media.

[2] = system: mouse embryonic fibroblasts (129 or OG2 MEFs); assay: Screen for iPSC generation from MEFs transduced with Oct4/Klf4 (OK); assay type: cell-based
Protocol: Unmodified MEFs derived from E13-14 embryos of the 129 mice were used for the initial screen. MEFs were plated on Matrigel at 3.5×10^4 cells/well of a 6-well plate and transduced with OK (retroviral vectors expressing Oct4 and Klf4) alone. Within 14-21 days, treated cells were assessed for the appearance of colonies that had the characteristic embryonic stem cell (ESC) colony morphology and were positive for the pluripotency marker alkaline phosphatase (ALP). Such OK-transduced cells generated only a few small non-compact colonies, which were weakly positive for ALP expression. These colonies initially appeared within 21 days after viral transduction and were difficult to expand. Therefore, such assay system offered a clean background for the identification of small molecules having desirable reprogramming inducing activity. Using this system, compounds from a library of around 2000 known small molecules (see Experimental Procedures below) were screened and were identified as hits when they induced the appearance of ESC colonies that were strongly positive for ALP within 14-21 days after treatment. This image-based method provided a more accurate assessment of reprogramming as compared to homogenous reporter-based assay. BIX appeared to have the strongest effect with reproducible induction of more than 1-2 compact ESC-like colonies with high ALP expression. We observed that when MEFs were treated with BIX after OK viral transduction, compact colonies with strong ALP expression could be readily detected within approximately 14-21 days. These cells were also positive for Nanog, Oct4 and SSEA-1 expression. […] However, the reprogramming efficiency in MEFs transduced with OK and treated with BIX was still low, about 2 colonies/3.5×10^4 cells, in comparison to the four factor-induced reprogramming of MEFs or the OK/BIX NPC reprogramming (Shi, Y. et al., Cell Stem Cell, 2:525-528 (2008)). Therefore, we conducted a second screen using a similar protocol, but where BIX was added to the basal media after OK viral transduction. This provided a more permissive platform to identify new small molecules that could further improve reprogramming efficiency. More importantly, this second screen could facilitate discovery of small molecules that impact reprogramming in a more specific manner, for example by acting on signal transduction pathways rather than on histone or DNA modifying enzymes. In this second screen, we again assayed the library of around 2000 known small molecules (see Experimental Procedures), and confirmed two compounds that were able to act in a synergistic manner with BIX to improve reprogramming based on the criteria of the screen. […] Therefore, RG108 was not pursued further for this study. Instead, we focused our phenotypic and functional characterization on another small molecule that was identified in the second screen, BayK, an L-calcium channel agonist. […] Therefore, BayK might play a more specific role in the reprogramming process. When 129 MEFs were transduced with empty retrovirus (negative control); no colonies observed. When 129 MEFs were transduced with OK without small molecules; few small flattened colonies with weak ALP expression present. […] When OK-transduced MEFs were treated with BIX in combination with BayK, a significant increase in the number of ALP^+ colonies that closely resemble the mESC morphology could be observed (˜7 colonies) as compared to OK-transduced MEFs treated with BIX alone (˜2 colonies).
Primary 12952/SvPasCrlf (primary screen) or ROSA26^+/−/OG2^+/− (secondary screen) MEFs were plated onto Matrigel (1:50; BD Biosciences, Bedford, Mass.) coated dishes at a density of 3.5×10^4 cells per well of a 6-well plate. Twenty-four hours later, these cells were transduced overnight with defined retroviruses at 37° C., 5% CO2. […] (all products were from Invitrogen, Carlsbad, Calif., except where mentioned). […]

[3] = system: mES R1 cells; assay: Proliferation assay; assay type: cell-based, mouse; conditions: 2 μM BayK, 1 μM BIX; 15, 24, 48 hours; vs DMSO
Protocol: mES R1 cells were plated onto gelatin-coated 6-well plates at a density of 2×10^5 cells/well in complete mES cell media. Upon cell attachment, app. 12 hours, the cells were treated either with DMSO, 1 μM BIX, 2 μM BayK, and a combination of both, in triplicate. At 15, 24 and 48 hours, the cells were detached using trypsin, and counted using a hemocytometer. Trypan blue (Sigma-Aldrich, St. Louis, Mo.) was used for dead cell exclusion.

COc1cc2nc(N3CCCN(C)CC3)nc(NC3CCN(Cc4ccccc4)CC3)c2cc1OC [BIX01294]
appearance of GFP+ iPS cell colonies after transduction and treatment ([1]; OG2 neural progenitor cells transduced with Oct4/Klf4 retroviruses): 12 days
kinetics of reprogramming ([1]; Oct4/Klf4 viral transduction, BIX01294 treatment): didn't significantly shorten the kinetics of reprogramming
reprogramming efficiency ([1]; Oct4/Klf4 viral transduction, BIX01294 treatment (0.5-1 μM)): significantly improve the reprogramming efficiency to or higher than the level of using viral transduction of all four factors
generation of iPS cells in the absence of Oct4 expression ([1]; viral transduction of Klf4, Sox2 and cMyc with simultaneous treatment): can also generate iPS cells
reprogramming efficiency (GFP+ colonies) ([2]; OG2 MEFs transduced with OK, FIG. 3): 2.5±0.7 colonies per 3.5×10^4 cells
number of ALP+ colonies that closely resemble the mESC morphology ([2]; OK-transduced 129 MEFs, 14-21 days): about 2 colonies
proliferation of mES cells (cell number) [3]: does not increase the proliferation of mES cells
